From patent US7485416B2, “Screening methods for the identification of agents that inhibit SIRT1 Tat deacetylase activity” (The Regents of the University of California, priority 2003, dated 2009) come the findings set out here.

SMILES strings stand for the structures.

One assay addresses T1, SIRT1 (Homo sapiens, UniProt Q96EB6).
T1 construct: made in house; host or cells: HEK 293 cells (transient transfection, anti-FLAG M2 agarose immunoprecipitation)
T1 sequence (Q96EB6 1-747): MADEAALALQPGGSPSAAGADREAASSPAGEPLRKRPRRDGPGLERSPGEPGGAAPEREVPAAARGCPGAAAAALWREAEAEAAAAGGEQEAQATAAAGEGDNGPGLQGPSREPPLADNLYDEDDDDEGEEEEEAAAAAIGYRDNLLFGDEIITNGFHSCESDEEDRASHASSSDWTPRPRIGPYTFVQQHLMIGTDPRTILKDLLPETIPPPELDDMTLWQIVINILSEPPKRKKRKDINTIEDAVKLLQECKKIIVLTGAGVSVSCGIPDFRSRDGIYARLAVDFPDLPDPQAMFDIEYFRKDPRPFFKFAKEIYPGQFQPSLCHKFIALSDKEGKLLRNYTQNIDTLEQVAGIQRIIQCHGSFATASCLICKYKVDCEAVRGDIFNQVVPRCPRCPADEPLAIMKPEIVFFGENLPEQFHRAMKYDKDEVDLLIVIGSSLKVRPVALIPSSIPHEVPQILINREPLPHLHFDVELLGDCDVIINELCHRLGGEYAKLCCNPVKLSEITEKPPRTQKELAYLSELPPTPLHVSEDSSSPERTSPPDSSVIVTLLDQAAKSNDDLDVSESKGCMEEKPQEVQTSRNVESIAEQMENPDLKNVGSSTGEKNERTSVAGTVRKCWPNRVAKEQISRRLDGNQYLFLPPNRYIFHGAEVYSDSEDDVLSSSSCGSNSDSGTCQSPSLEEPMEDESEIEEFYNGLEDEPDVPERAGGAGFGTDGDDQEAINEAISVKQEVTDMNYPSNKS
The assay is described as follows: In vitro Tat deacetylation assay with immunoprecipitated SIRT1. The settings on record: AcTat, NAD+ 1 mM; nicotinamide 5 mM, TSA 400 nM; western blot (FIG. 2B). The assay is classed as biochemical. As for the experimental part:
Human SIRT1-7 FLAG-tagged plasmids were transfected in 293 cells with lipofectamine reagent (Invitrogen). Cells were lysed 24 hours after transfection with lysis buffer (50 mM Tris-Hcl, pH 7.5, 0.5 mM EDTA, 0.5% NP40, 150 mM NaCl) in the presence of protease inhibitors (Roche Molecular Biochemicals, Indianapolis, Ind.). Equal amounts of total proteins were immunoprecipitated with α-FLAG (anti-FLAG antibody) coupled to M2 agarose beads (Sigma, St Louis, Mo.), for 2 hours at 4° C. Immunoprecipitated material was washed twice with immunoprecipitation (IP) buffer and one time with SIRT deacetylation buffer (50 mM Tris-HCl pH 9, 4 mM MgCl2, 0.2 mM DTT). The beads were resuspended in 100 μl SIRT deacetylation buffer containing 1 μg synthetic Tat (72 amino acids) carrying an N-terminal biotin label and an acetyl group at position 50. Kaehlcke et al. (2003), supra. Reactions containing TSA (400 nM, WACO Bioproducts, Richmond, Va.) or nicotinamide (5 mM, Sigma) were preincubated for 10 min at room temperature. […] Reactions were stopped by the addition of SDS loading buffer, boiled, and after brief centrifugation, analyzed by western blotting with rabbit α-AcTat antibodies (Kaehlcke et al. (2003), supra) or horseradish peroxidase-conjugated streptavidin (Jackson Immunoresearch Laboratories, West Grove, Pa.). SIRT1-7 proteins were detected with polyclonal α-FLAG antibodies (Sigma).

The next assay has as its system HIV LTR luciferase. The assay is described as follows: Nuclear microinjection of synthetic Tat or AcTat with HIV LTR luciferase reporter into HeLa cells. Type of assay: cell-based. The settings on record: for basal HIV promoter activity / transcriptional activity of AcTat (transactivation of the HIV promoter): TSA 400 nM or nicotinamide 5 mM, four hours (FIG. 6C). The method, then: Subconfluent MEFs (70%) were grown on Cellocate coverslips (Eppendorf, Westbury, N.Y.), and nuclear microinjections were performed at room temperature with an automated injection system (Eppendorf Micromanipulator 5171 together with Eppendorf Transjector 5246). Samples were prepared as a 20 μl injection mix containing the HIV LTR luciferase reporter or 5×UAS luciferase (each 100 ng/μl), RSV-Tat (10 ng/μl) or Gal4-VP16 (50 ng/μl), CMV-CyclinT1 (100 ng/μl), CMV-SIRT1 (100 or 300 ng/μl) together with CMV-GFP (50 ng/μl) in sterile water. Six hours after microinjection, cells were examined under a Nikon Eclipse TE300 inverted fluorescent microscope to determine the number of GFP-positive cells, washed in cold phosphate buffer, and stored at −70° C. for luciferase assays (Promega). In HeLa cells, synthetic Tat or AcTat proteins (each 30 or 100 ng/μl) were co-injected with the wildtype or mutant HIV LTR luciferase reporters (each 100 ng/μl) together with CMV-GFP (50 ng/μl) and harvested four hours after injection. Cells were treated immediately after injection with 5,6-dichlorobenzimidazole riboside (DRB; 10 or 50 μM; Sigma), TSA (400 nM), or nicotinamide (5 mM). Microinjections in siRNA-treated cells were performed 48 hours after siRNA transfection.

In assay [1] the test system is Tat-dependent HIV transcription. The assay is described as follows: Tat transactivation of HIV LTR luciferase reporter in transfected HeLa cells treated with HR73. Particulars: at ~1 μM, 8 hours, dose-dependent (FIG. 7C left). The assay is classed as cell-based. The method, then:
(§1) In co-transfection experiments, human CMV-SIRT1 or CMV-SIRT1H363Y (600 ng) was co-transfected into HeLa cells plated in six-well plates with the HIV LTR luciferase reporter (200 ng) or the LTRΔNF-kB-luciferase reporter (200 ng) and increasing amounts of RSV-Tat (0 ng, 2 ng, 20 ng, and 200 ng) using the lipofectamine reagents (Invitrogen). In the control experiment, RSV-Tat was replaced by RSV luciferase (200 ng), and the HIV LTR luciferase construct was replaced by the HIV LTR CAT reporter. […] The RSV-luciferase construct was used as described above. […] Cells were harvested 8 hr later and processed for luciferase assays.
(In general: Reporter assays use an easily measured gene product as a stand-in for the process of interest.)

The subject of another assay is RSV LTR. As to the kind of experiment: RSV luciferase control in transfected HeLa cells. Type of assay: cell-based. Particulars: 1 μM (FIG. 7C right). The method, then: as §1
For another assay, the system named is p53. The assay is described as follows: p53 acetylation in cells. The assay is classed as cell-based. Particulars: 1 μM.
In assay [2] the test system is HIV-R7/E-/GFP (HIVNL4-3 with GFP in place of nef). The assay is described as follows: Single-cycle HIV infection of Jurkat T cells, GFP expression by flow cytometry. Type of assay: cell-based. Particulars: 1 μM, 36 hours (FIG. 7D left). The method, then:
(§2) The HIV molecular clone (HIV-R7/E^−/GFP) containing the GFP open reading frame in place of the nef gene and a frameshift mutation in the env gene as well as the method to generate pseudotyped viral particles with VSV-G was previously described. Jordan et al. (2003) Embo J 22: 1868-1877. The number of infective particles per ml was established by infecting 3×10^5 Jurkat cells with different amounts of viral suspension. The titer of the viral stock was measured by flow cytometry analysis of GFP expression 48 hours after infection. The pHR′-EF-1α/GFP construct is a minimal nonreplicative HIV-1 genome containing a heterologous promoter (EF-1α) driving GFP expression. Naldini et al. (1996) Science 272: 263-267. […]. Zufferey et al. (1997) Nat Biotechnol 15: 871-875. All vectors for the production of HIV-based lentiviral vectors were provided by D. Trono, University of Geneva, Switzerland. Jurkat T cells were incubated overnight with HIV-R7/E^−/GFP or pHR′-EF-1α/GFP viral particles at a theoretical multiplicity of infection (m.o.i.) of 0.5 in 24-well plates. […] Viral infection was monitored 36 hours later by flow cytometry analysis using a Calibur FACScan (Becton Dickinson).
(In general: In flow cytometry, cells or beads pass a laser one at a time.)

A further assay deals with pHR'-EF-1α/GFP. As to the kind of experiment: HIV-based lentiviral vector expressing GFP from EF-1α promoter in Jurkat T cells (control). Particulars: 1 μM, 36 hours (FIG. 7D right). The assay is classed as cell-based. As for the experimental part:
as §2

As to `CC(/C=C/C(=O)NO)=C\[C@@H](C)C(=O)c1ccc(N(C)C)cc1` [TSA], at SIRT1, the “effect on SIRT1-mediated deacetylation of Tat” value is “had no effect”. In addition, in the assay with HIV LTR luciferase, the “basal HIV promoter activity” value is “enhanced” and the “transcriptional activity of AcTat (transactivation of the HIV promoter)” value was “enhanced”.
As to `OC[C@H]1O[C@@H](n2cnc3cc(Cl)c(Cl)cc32)[C@H](O)[C@@H]1O` [DRB, 5,6-dichlorobenzimidazole riboside], the “transactivation by Tat and AcTat” value in the assay on HIV LTR luciferase (Tat or AcTat 30 ng/μl, DRB 10 or 50 μM, four hours (FIG. 6B)) is reported as “inhibited in a dose-dependent manner”.
Consider `O=C1Oc2ccc3cc(Br)ccc3c2CC1c1ccccc1` (stereo not drawn) [HR73], for which the “suppression of Tat-dependent HIV transcription” value in assay [1] stood at 3 fold. Moreover, the “activity of the RSV LTR” value with RSV LTR was “did not suppress”. Also, the “acetylation of p53” value in the assay with p53 was “induced hyperacetylation”. Moreover, the “reduction of HIV gene expression as measured by GFP expression” value in assay [2] came to 5 fold. In addition, in the assay with pHR'-EF-1α/GFP, the “GFP expression from the EF-1α promoter” value is “not affected”.
Turning to `NC(=O)c1cccnc1` [nicotinamide], at SIRT1, the “effect on SIRT1-mediated deacetylation of Tat” value was “completely inhibited”. Further, in the assay with HIV LTR luciferase, the “basal HIV promoter activity” value is recorded as “stimulating” and the “transcriptional activity of AcTat (transactivation of the HIV promoter)” value is listed as “blocked”.
